{"source": "patent US20070099982A1", "about": "“Use of chp as an inhibitor of glutathione s-transferases and collagen IV” (priority 2003, published 2007)", "key": {"collagen IV": {"system": "collagen IV", "conditions": "mean of 12 healthy subjects, 4×2 g CHP per day over 14 days", "source_text": "CHP was repeatedly administered over 14 days, using 4×2 g of CHP per day."}, "[1]": {"system": "α-glutathione S transferase", "conditions": "mean of 12 healthy subjects, 4×2.0 g CHP/day over 14 days"}}, "note": "Where two headings read alike, the source gives them in different places."}
{"smiles": "O=C(O)[C@@H]1C[C@@H](O)CN1", "note": "(relative stereo) [CHP, cis-hydroxy-L-proline]", "values": [{"measurement": "Concentration of collagen IV in serum, MEAN", "setting": "collagen IV; day 0", "result": 115.39}, {"measurement": "Concentration of collagen IV in serum, MEAN", "setting": "collagen IV; day 7", "result": 93.03}, {"measurement": "Concentration of collagen IV in serum, MEAN", "setting": "collagen IV; day 13", "result": 99.79}, {"measurement": "Concentration of collagen IV in serum, MEAN", "setting": "collagen IV; day 13.25", "result": 92.87}, {"measurement": "Concentration of collagen IV in serum, MEAN", "setting": "collagen IV; day 14", "result": 97.77}, {"measurement": "Concentration of collagen IV in serum, MEAN", "setting": "collagen IV; day 17", "result": 93.45}, {"measurement": "Concentration of α-glutathione S transferase in serum, MEAN", "setting": "[1]; day 0", "result": 0.46}, {"measurement": "Concentration of α-glutathione S transferase in serum, MEAN", "setting": "[1]; day 7", "result": 0.37}, {"measurement": "Concentration of α-glutathione S transferase in serum, MEAN", "setting": "[1]; day 13", "result": 0.26}, {"measurement": "Concentration of α-glutathione S transferase in serum, MEAN", "setting": "[1]; day 13.25", "result": 0.20}, {"measurement": "Concentration of α-glutathione S transferase in serum, MEAN", "setting": "[1]; day 14", "result": 0.21}, {"measurement": "Concentration of α-glutathione S transferase in serum, MEAN", "setting": "[1]; day 17", "result": 0.18}]}
